Values joined by “and” are separate entries in the source; they are usually repeats but may differ in a detail not shown here. Equal values may be shown once. Read-outs that look alike come from different tables or passages of the source.
Tested on: Influenza A H3N2 virus (H3N2)
Format: cell-based
Settings: for average inactivation efficiency against virus / inactivation efficiency against the virus: H3N2 virus; for inactivation efficiency against the virus: single experiment

O=C(O[C@@H]1Cc2c(O)cc(O)cc2O[C@@H]1c1cc(O)c(O)c(O)c1)c1cc(O)c(O)c(O)c1 [EGCG, Epigallocatechin gallate]
99.50% and 99.87%: inactivation efficiency against the virus (1 mM EGCG, 5 minutes)
+: CPE test, virus replication in cell wells 1-10 (1 mM EGCG + H3N2 virus, 1 minute, third experiment, dilution factor 10^2) | CPE test, virus replication in cell wells 1-10 (1 mM EGCG + H3N2 virus, 1 minute, third experiment, dilution factor 10^3) | CPE test, virus replication in cell wells 1-10 (1 mM EGCG + H3N2 virus, 1 minute, third experiment, dilution factor 10^4) | CPE test, virus replication in cell wells (wells 1-10) (5 mM EGCG + H3N2 virus, 1 minute, second experiment, dilution factor 10^3) | CPE test, virus replication in cell wells 1-10 (5 mM EGCG + H3N2 virus, 5 minute, second experiment, dilution factor 10^3)
98.74% and 96.84%: inactivation efficiency against the virus (5 mM EGCG, 1 minute)
61.78%: average inactivation efficiency against virus (1 mM EGCG, 1 minute, three experiments)
99.69%: average inactivation efficiency against virus (1 mM EGCG, 5 minutes, two experiments)
98.32%: average inactivation efficiency against virus (5 mM EGCG, 5 minutes, two experiments)
− and +: CPE test, virus replication in cell wells 1-10 (1 mM EGCG + H3N2 virus, 1 minute, third experiment, dilution factor 10^5) | CPE test, virus replication in cell wells 1-10 (1 mM EGCG + H3N2 virus, 5 minute, first experiment, dilution factor 10^3) | CPE test, virus replication in cell wells 1-10 (5 mM EGCG + H3N2 virus, 5 minute, first experiment, dilution factor 10^4) | CPE test, virus replication in cell wells 1-10 (5 mM EGCG + H3N2 virus, 5 minute, first experiment, dilution factor 10^5)
−: CPE test, virus replication in cell wells (wells 1-10) (1 mM EGCG + H3N2 virus, 1 minute, second experiment, dilution factor 10^6) | CPE test, virus replication in cell wells (wells 1-10) (1 mM EGCG + H3N2 virus, 1 minute, second experiment, dilution factor 10^7) | CPE test, virus replication in cell wells (wells 1-10) (1 mM EGCG + H3N2 virus, 1 minute, second experiment, dilution factor 10^8) | CPE test, virus replication in cell wells 1-10 (1 mM EGCG + H3N2 virus, 1 minute, third experiment, dilution factor 10^6) | CPE test, virus replication in cell wells 1-10 (1 mM EGCG + H3N2 virus, 1 minute, third experiment, dilution factor 10^7) | CPE test, virus replication in cell wells 1-10 (1 mM EGCG + H3N2 virus, 1 minute, third experiment, dilution factor 10^8) | CPE test, virus replication in cell wells 1-10 (1 mM EGCG + H3N2 virus, 5 minute, first experiment, dilution factor 10^5) | CPE test, virus replication in cell wells 1-10 (1 mM EGCG + H3N2 virus, 5 minute, first experiment, dilution factor 10^6) | CPE test, virus replication in cell wells 1-10 (1 mM EGCG + H3N2 virus, 5 minute, first experiment, dilution factor 10^7) | CPE test, virus replication in cell wells 1-10 (1 mM EGCG + H3N2 virus, 5 minute, first experiment, dilution factor 10^8) | CPE test, virus replication in cell wells 1-10 (1 mM EGCG + H3N2 virus, 5 minute, second experiment, dilution factor 10^3) | CPE test, virus replication in cell wells 1-10 (1 mM EGCG + H3N2 virus, 5 minute, second experiment, dilution factor 10^4) | CPE test, virus replication in cell wells 1-10 (1 mM EGCG + H3N2 virus, 5 minute, second experiment, dilution factor 10^5) | CPE test, virus replication in cell wells 1-10 (1 mM EGCG + H3N2 virus, 5 minute, second experiment, dilution factor 10^6) | CPE test, virus replication in cell wells 1-10 (1 mM EGCG + H3N2 virus, 5 minute, second experiment, dilution factor 10^7) | CPE test, virus replication in cell wells 1-10 (1 mM EGCG + H3N2 virus, 5 minute, second experiment, dilution factor 10^8) | CPE test, virus replication in cell wells (wells 1-10) (5 mM EGCG + H3N2 virus, 1 minute, first experiment, dilution factor 10^4) | CPE test, virus replication in cell wells (wells 1-10) (5 mM EGCG + H3N2 virus, 1 minute, first experiment, dilution factor 10^5) | CPE test, virus replication in cell wells (wells 1-10) (5 mM EGCG + H3N2 virus, 1 minute, first experiment, dilution factor 10^6) | CPE test, virus replication in cell wells (wells 1-10) (5 mM EGCG + H3N2 virus, 1 minute, first experiment, dilution factor 10^7) | CPE test, virus replication in cell wells (wells 1-10) (5 mM EGCG + H3N2 virus, 1 minute, first experiment, dilution factor 10^8) | CPE test, virus replication in cell wells (wells 1-10) (5 mM EGCG + H3N2 virus, 1 minute, second experiment, dilution factor 10^4) | CPE test, virus replication in cell wells (wells 1-10) (5 mM EGCG + H3N2 virus, 1 minute, second experiment, dilution factor 10^5) | CPE test, virus replication in cell wells (wells 1-10) (5 mM EGCG + H3N2 virus, 1 minute, second experiment, dilution factor 10^6) | CPE test, virus replication in cell wells (wells 1-10) (5 mM EGCG + H3N2 virus, 1 minute, second experiment, dilution factor 10^7) | CPE test, virus replication in cell wells (wells 1-10) (5 mM EGCG + H3N2 virus, 1 minute, second experiment, dilution factor 10^8) | CPE test, virus replication in cell wells 1-10 (5 mM EGCG + H3N2 virus, 1 minute, third experiment, dilution factor 10^4) | CPE test, virus replication in cell wells 1-10 (5 mM EGCG + H3N2 virus, 1 minute, third experiment, dilution factor 10^5) | CPE test, virus replication in cell wells 1-10 (5 mM EGCG + H3N2 virus, 1 minute, third experiment, dilution factor 10^6) | CPE test, virus replication in cell wells 1-10 (5 mM EGCG + H3N2 virus, 1 minute, third experiment, dilution factor 10^7) | CPE test, virus replication in cell wells 1-10 (5 mM EGCG + H3N2 virus, 1 minute, third experiment, dilution factor 10^8) | CPE test, virus replication in cell wells 1-10 (5 mM EGCG + H3N2 virus, 5 minute, first experiment, dilution factor 10^6) | CPE test, virus replication in cell wells 1-10 (5 mM EGCG + H3N2 virus, 5 minute, first experiment, dilution factor 10^7) | CPE test, virus replication in cell wells 1-10 (5 mM EGCG + H3N2 virus, 5 minute, first experiment, dilution factor 10^8) | CPE test, virus replication in cell wells 1-10 (5 mM EGCG + H3N2 virus, 5 minute, second experiment, dilution factor 10^4) | CPE test, virus replication in cell wells 1-10 (5 mM EGCG + H3N2 virus, 5 minute, second experiment, dilution factor 10^5) | CPE test, virus replication in cell wells 1-10 (5 mM EGCG + H3N2 virus, 5 minute, second experiment, dilution factor 10^6) | CPE test, virus replication in cell wells 1-10 (5 mM EGCG + H3N2 virus, 5 minute, second experiment, dilution factor 10^7) | CPE test, virus replication in cell wells 1-10 (5 mM EGCG + H3N2 virus, 5 minute, second experiment, dilution factor 10^8)
97.49% and 98.74%: inactivation efficiency against the virus (5 mM EGCG, 5 minutes)
+ and −: CPE test, virus replication in cell wells (wells 1-10) (1 mM EGCG + H3N2 virus, 1 minute, second experiment, dilution factor 10^4) | CPE test, virus replication in cell wells (wells 1-10) (1 mM EGCG + H3N2 virus, 1 minute, second experiment, dilution factor 10^5) | CPE test, virus replication in cell wells 1-10 (1 mM EGCG + H3N2 virus, 5 minute, first experiment, dilution factor 10^4)
98.11%: average inactivation efficiency against virus (5 mM EGCG, 1 minute, three experiments)

Reference: patent US20240238242A1, “EGCG buccal tablet and use thereof” (priority 2023, published 2024)
